Laboratory results published in US20200392126A1, “ISOXAZOLYL COMPOUNDS AS RECEPTOR MODULATING COMPOUNDS AND METHODS AND USES THEREOF” (BIONOMICS LIMITED, priority 2017, published 2020).
pIC50: −log10 of the molar value.

molecular target: T1, hnAChR α7/ric3 (Homo sapiens, UniProt P36544); assay: IonFlux HT electrophysiological recording of hnAChR α7/ric3 currents, inhibition of ACh (200 μM, EC80) peak current; type: cell-based; conditions: not given
T1 construct: expressed in transfected cells
Procedure: All wells included a final DMSO concentration of 0.33% including all control wells.
The solutions for recording hnAChR α7/ric3 currents were:
All recordings were obtained from a holding potential of −60 mV.
Compounds were assayed using bump-in protocol. The compound addition sequence that was used for all additions was the same for all assays. One addition of the EC80 concentration of ACh (200 μM) was added to establish baseline response. The test compounds were tested on cells in increasing concentrations of 0.12, 0.37, 1.1, 3.3, 10 μM±200 μM ACh for all compounds. Each compound was applied for one minutes followed by the addition of 200 μM ACh for 1 second.
Peak inward currents in response to the ACh additions in the presence of increasing concentrations of compound were measured.
Potentiation of ACh Response=(I^Compound^+^ACh/I^ACh)
All data were first exported to an Excel compatible data file and then analyzed using Graph Pad Prism software.

T1 sequence (P36544 23-502): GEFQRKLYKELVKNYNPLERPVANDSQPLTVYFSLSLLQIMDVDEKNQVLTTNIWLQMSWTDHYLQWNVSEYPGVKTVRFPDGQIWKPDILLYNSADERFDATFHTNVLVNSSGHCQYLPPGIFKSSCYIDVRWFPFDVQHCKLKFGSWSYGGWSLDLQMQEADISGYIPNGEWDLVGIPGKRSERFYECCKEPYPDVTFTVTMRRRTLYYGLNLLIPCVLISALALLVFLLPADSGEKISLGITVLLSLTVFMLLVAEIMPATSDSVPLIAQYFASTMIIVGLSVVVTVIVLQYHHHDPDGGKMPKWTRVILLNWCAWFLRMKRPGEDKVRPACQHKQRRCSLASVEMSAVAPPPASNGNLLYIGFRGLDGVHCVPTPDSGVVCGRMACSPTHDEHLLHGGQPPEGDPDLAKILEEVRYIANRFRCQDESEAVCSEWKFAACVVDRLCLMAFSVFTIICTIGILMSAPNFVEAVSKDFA

Row | Structure (SMILES) | pIC50
1 | Cc1nocc1S(=O)(=O)NC1(c2ccccc2)CCCCC1 [Compound 1, 3-Methyl-N-(1-phenylcyclohexyl)isoxazole-4-sulfonamide] | 5.24
2 | Cc1nocc1S(=O)(=O)N1CCN(c2ccc(F)cc2)CC1 [Compound 8, 4-(4-(4-Fluorophenyl)piperazin-1-ylsulfonyl)-3-methylisoxazole] | 5.66

same assay, conditions: hnAChR α7/ric3; 0.12-10 μM compound, 1 min preincubation, then 200 μM ACh for 1 s; holding potential −60 mV; read-out: IC50

Row | pIC50 | Structure (SMILES)
3 | 5.77 | Cc1nocc1S(=O)(=O)NCCc1ccccc1 [Compound 2, 3-Methyl-N-phenethylisoxazole-4-sulfonamide]
4 | 5.66 | Cc1nocc1S(=O)(=O)NCCc1ccc(F)cc1 [Compound 3, N-(4-Fluorophenethyl)-3-methylisoxazole-4-sulfonamide]
5 | 6.40 | Cc1nocc1S(=O)(=O)N1CCC(c2ccc(F)cc2)CC1 [Compound 7]
6 | 5.19 | Cc1nocc1S(=O)(=O)N1CCN(c2ccccn2)CC1 [Compound 10, 3-Methyl-4-(4-(pyridin-2-yl)piperazin-1-ylsulfonyl)isoxazole]
7 | 5.54 | Cc1nocc1S(=O)(=O)N1CCc2ccccc2CC1 [Compound 11, 3-Methyl-4-((1,2,4,5-tetrahydro-3H-benzo[d]azepin-3-yl)sulfonyl)isoxazole]
